Experimental data from ChEMBL document CHEMBL1132650, “4,5-Dihydro-1,2,4-triazolo[1,5-a]quinoxalin-4-ones: excitatory amino acid antagonists with combined glycine/NMDA and AMPA receptor affinity” (J Med Chem, 1999).

How the values were obtained:
[1] = biological target: T1, Glutamate receptor ionotropic, AMPA (Rattus norvegicus, UniProt P19490+P19491+P19492+P19493); test: Binding affinity towards ionotropic glutamate receptor AMPA in rat cortical membranes using [3H]AMPA radioligand; format: cell membranes
[2] = biological target: T2, Glutamate receptor ionotropic, NMDA 1 (Rattus norvegicus, UniProt P35439); test: Functional antagonism at the NMDA receptor-ion channel complex was demonstarted by the ability to inhibit the binding of the channel-blocking agent [3H](+)-MK-801
[3] = biological target: T2, Glutamate receptor ionotropic, NMDA 1; test: The compound was tested for its binding affinity towards Glycine/NMDA receptor in rat cortical membranes using [3H]glycine as radioligand; format: cell membranes
[4] = biological target: T2, Glutamate receptor ionotropic, NMDA 1; test: Binding affinity towards N-methyl-D-aspartate glutamate receptor 1 in rat cortical membranes using [3H]glycine as radioligand; format: cell membranes
[5] = biological target: T2, Glutamate receptor ionotropic, NMDA 1; test: Functional antagonism at the N-methyl-D-aspartate glutamate receptor 1 was demonstarted by the ability to inhibit the binding of the channel-blocking agent [3H](+)-MK-801
[6] = biological target: T1, Glutamate receptor ionotropic, AMPA; test: The compound was tested for its binding affinity towards AMPA receptor in rat cortical membranes using [3H]AMPA radioligand; format: cell membranes

Structure (SMILES)	Ki [1] [µM]	EC50 [2] [µM]	Ki [3] [µM]	Ki [4] [µM]	EC50 [5] [µM]	Ki [6] [µM]
O=C(O)c1nc2c(=O)[nH]c3cc(Cl)c(Cl)cc3n2n1	1.3	0.3	0.074			
OCc1nc2c(O)nc3cc(Cl)ccc3n2n1	4.4			7.5		
O=C(O)Cc1nc2c(O)nc3cc(Cl)ccc3n2n1	3.7			1.1		
CCOC(=O)c1nc2c(=O)[nH]c3cc(Cl)cc(Cl)c3n2n1	4.9			4.8		
O=C(O)c1nc2c(O)nc3cc(Cl)c([N+](=O)[O-])cc3n2n1	1.2			2.2		
O=C(O)c1nc2c(=O)[nH]c3ccccc3n2n1	13.6			1.1	4.9	
CCOC(=O)c1nc2c(=O)[nH]c3cc(N)ccc3n2n1	> 100			> 100	> 100	
O=C(O)c1nc2c(=O)[nH]c3cc(Cl)cc(Cl)c3n2n1	1.53			0.14	1.35	
O=C(O)c1nc2c(O)nc3ccc([N+](=O)[O-])cc3n2n1	10.7			79.4	> 100	
O=C(O)CNC(=O)c1nc2c(O)nc3cc(Cl)ccc3n2n1	3.2			8.8		
CCn1c(=O)c2nc(C(=O)O)nn2c2ccc(Cl)cc21	> 100			88	> 100	
CCOC(=O)c1nc2c(O)nc3cc(Cl)c(Cl)cc3n2n1	33.9			0.71	1.5	
O=C(O)c1cc(O)c2c(Cl)cc(Cl)cc2n1					0.33	
O=C(O)c1nc2c(=O)[nH]c3ccc(Cl)cc3n2n1	18.4			3.5	32.5	
O=C(NO)c1nc2c(O)nc3cc(Cl)ccc3n2n1			1.1			3
CCOC(=O)c1nc2c(=O)[nH]c3cc(C(F)(F)F)ccc3n2n1	3.6			1.8		

Structure (SMILES)	Ki [1] [µM]	EC50 [2] [µM]	Ki [3] [µM]	Ki [4] [µM]	EC50 [5] [µM]	Ki [6] [µM]
CCOC(=O)c1nc2c(O)nc3cc(Br)ccc3n2n1	3.3			2.6		
O=C(Nc1nn[nH]n1)c1nc2c(O)nc3cc(Cl)ccc3n2n1	2.4			5.1		
O=C(O)c1nc2c(=O)[nH]c3cc([N+](=O)[O-])ccc3n2n1	0.6			0.71	7.8	
O=C(O)c1nc2c(=O)[nH]c3cc(Br)ccc3n2n1	4.4			0.39	3.7	
NC(=O)c1nc2c(=O)[nH]c3cc(Cl)ccc3n2n1	11.7			7.2		
CCOC(=O)Cc1nc2c(=O)[nH]c3cc(Cl)ccc3n2n1	2.1			6.5		
O=C(O)c1nc2c(O)nc3c([N+](=O)[O-])cc(Cl)cc3n2n1	4			4.5	> 100	
NNC(=O)c1nc2c(=O)[nH]c3cc(Cl)ccc3n2n1			9.6			5
O=C(O)c1nc2c(O)nc3cc(Cl)ccc3n2n1	0.78			0.17	2.9	
CCOC(=O)c1nc2c(=O)[nH]c3ccc(Cl)cc3n2n1	72.1			88.2		
COC(=O)CNC(=O)c1nc2c(=O)[nH]c3cc(Cl)ccc3n2n1	4.1			5.4		
O=C(NCCO)c1nc2c(O)nc3cc(Cl)ccc3n2n1	7.7			27.7		
CCOC(=O)c1nc2c(O)nc3cc(Cl)ccc3n2n1	2.6			3	22.1	
N#CCc1nc2c(O)nc3cc(Cl)ccc3n2n1	2			9.7		
O=C(O)c1nc2c(O)nc3cc(C(F)(F)F)ccc3n2n1	0.9			0.57	3.18	
CCOC(=O)c1nc2c(O)nc3ccccc3n2n1	28.5			16.7	69	
